pEC50: −log10 of the molar value.
What was measured:
standard diet-fed mice = assay: Standard diet-fed mice; format: in vivo, mouse
Description: The well-established high-fat diet (HFD) mouse model of obesity was used to study the impact of PBI-4547 on the onset and progression of NAFLD. A 14-week HFD regimen led to significant weight gain in both male and female mice. […] Moreover, PBI-4547 decreased serum triglycerides while enhancing adiponectin levels. […] Of note, the effects of PBI-4547 on bodyweight, food consumption, glucose tolerance, fasting blood glucose, insulin resistance and HOMA-β indices were absent in standard diet-fed mice (Table S1).
WT or Gpr84^−/− mice, as previously described, (aged 10–14 weeks at the beginning of the experiment) were either fed a standard diet (STD) or a high-fat diet (HFD) (Envigo #TD.06414) for 14 weeks. At this point, mice were administered either vehicle (water) or PBI-4547 (10 mg/kg) on a daily basis for 6 (WT study) or 8 (WT vs KO study) weeks by gastric gavage, and were sacrificed thereafter. Liver and WAT tissues were fixed in 10% formalin for histological analyses or flash frozen in liquid nitrogen for RT-PCR analyses. All animal studies were reviewed and approved by the animal care and use committee of the Institut National de la Recherche Scientifique – Armand-Frappier (Laval, QC, Canada) and the University of Ottawa’s Animal Care and Veterinary Services (Ottawa, ON, Canada). Protocols were approved and undertaken according to the Canadian Council on Animal Care guidelines.

GPR120 = biological target: T1, GPR120 (Homo sapiens, UniProt Q5NUL3); assay: BRET β-arrestin-2 recruitment to GPR120-GFP10 in HEK293 cells; format: cell-based; conditions: Rluc8-β-arrestin-2 / GPR120-GFP10
T1 construct: expressed in transfected cells; host or cells: HEK293
T1 sequence (Q5NUL3 1-361): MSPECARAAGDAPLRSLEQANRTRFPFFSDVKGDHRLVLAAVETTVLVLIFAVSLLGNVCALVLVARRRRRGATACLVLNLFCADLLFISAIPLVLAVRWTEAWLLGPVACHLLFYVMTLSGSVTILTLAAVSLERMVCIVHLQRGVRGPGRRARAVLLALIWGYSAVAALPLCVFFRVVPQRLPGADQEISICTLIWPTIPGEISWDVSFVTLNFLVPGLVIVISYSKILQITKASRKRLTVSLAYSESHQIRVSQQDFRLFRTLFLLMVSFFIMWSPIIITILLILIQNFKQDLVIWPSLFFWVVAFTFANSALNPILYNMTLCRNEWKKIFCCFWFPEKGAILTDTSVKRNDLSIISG
Method: Figure 1 PBI-4547 binding and activity on GPR84, GPR40, GPR120, and PPAR receptors. (A) Chemical structure of PBI-4547. (B) Gi pathway activation was monitored in HEK293 cells transfected with GPR84 and the Gαi2 activation biosensor. Cells were co-treated with […] sodium decanoate and increasing concentrations of PBI-4547, and BRET variation compared with vehicle was measured. (C) β-arrestin 2 recruitment to activated GPR120 receptor was monitored in HEK293 cells transfected with RLuc8-β-arrestin 2 and GPR120-GFP10. (D) Cells transfected with GPR40 and Gαq or Gαi2 activation biosensor were exposed to increasing concentrations of PBI-4547 or to 500 µM of sodium decanoate, and BRET variation compared with vehicle was measured. Cells were exposed to increasing concentrations of PBI-4547 or to 100 µM of GW9508, and BRET variation compared with vehicle was measured. […] Data in (B–D) are expressed as means ± SEM of 4–5 experiments; data in (E,F) are from a representative experiment from a total of 3 to 4 independent experiments. […]
BRET measurements in transiently transfected HEK293 cells were performed as previously described. Ligands were incubated with cells at room temperature for 10 min (G protein biosensors) or 25 min (β-arrestin/GPR120) before collecting BRET[2] readings between Rluc8 and GFP10.

pEC50 (GPR120): 4.32
SMILES: CCCCCc1cc(CCCCC)cc(CC(=O)[O-])c1.[Na+] [PBI-4547, 2-[3,5-dipentylphenyl]acetate sodium salt]
effects on bodyweight, food consumption, glucose tolerance, fasting blood glucose, insulin resistance and HOMA-β indices (standard diet-fed mice): absent

— paper PMC7391726, “Fatty acid mimetic PBI-4547 restores metabolic homeostasis via GPR84 in mice with non-alcoholic fatty liver disease” (Scientific Reports, 2020)
